According to patent publication US8906925B2, “Pyrido[4,3-B]indoles containing rigid moieties” (Medivation Technologies, Inc., priority 2008, dated 2014):
Read-outs that look alike come from different tables or passages of the source.

Tests used:
[1] = biological target: histamine receptor H1 (Homo sapiens, UniProt P35367); test: Histamine H1 radioligand binding ([3H]Pyrilamine); conditions: for inhibition at 1 µM: read-out: Histamine Binding (1 μM) H1, percent inhibition of specific binding, 1 μM
Chain of histamine receptor H1 (P35367 whole entry): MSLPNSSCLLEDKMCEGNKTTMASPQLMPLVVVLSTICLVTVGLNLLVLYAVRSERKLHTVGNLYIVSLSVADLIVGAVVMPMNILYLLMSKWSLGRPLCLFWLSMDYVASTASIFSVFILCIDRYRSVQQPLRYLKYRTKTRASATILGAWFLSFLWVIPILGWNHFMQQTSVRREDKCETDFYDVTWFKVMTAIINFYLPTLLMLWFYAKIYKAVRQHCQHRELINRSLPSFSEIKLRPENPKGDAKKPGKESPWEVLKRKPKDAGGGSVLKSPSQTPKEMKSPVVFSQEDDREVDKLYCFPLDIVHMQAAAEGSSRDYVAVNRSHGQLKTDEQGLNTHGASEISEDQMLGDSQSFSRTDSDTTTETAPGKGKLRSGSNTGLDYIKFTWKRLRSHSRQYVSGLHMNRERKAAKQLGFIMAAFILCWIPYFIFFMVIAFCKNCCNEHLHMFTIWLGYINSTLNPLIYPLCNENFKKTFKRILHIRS
How it was run: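 Values are percent inhibition of specific [3H]pyrilamine (1.2 nM) binding with compounds at ≤1 μM (1% DMSO vehicle); 180 min incubation at 25 °C, pH 7.4 Tris buffer, on CHO-expressed human H1 receptor; 1 μM pyrilamine defined nonspecific binding, bound ligand counted after filtration.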

[2] = biological target: human dopamine D2L receptor (Homo sapiens, UniProt P14416); test: Dopamine D2L radioligand binding ([3H]Spiperone); conditions: compound at 1 μM
Chain of human dopamine D2L receptor (P14416 whole entry): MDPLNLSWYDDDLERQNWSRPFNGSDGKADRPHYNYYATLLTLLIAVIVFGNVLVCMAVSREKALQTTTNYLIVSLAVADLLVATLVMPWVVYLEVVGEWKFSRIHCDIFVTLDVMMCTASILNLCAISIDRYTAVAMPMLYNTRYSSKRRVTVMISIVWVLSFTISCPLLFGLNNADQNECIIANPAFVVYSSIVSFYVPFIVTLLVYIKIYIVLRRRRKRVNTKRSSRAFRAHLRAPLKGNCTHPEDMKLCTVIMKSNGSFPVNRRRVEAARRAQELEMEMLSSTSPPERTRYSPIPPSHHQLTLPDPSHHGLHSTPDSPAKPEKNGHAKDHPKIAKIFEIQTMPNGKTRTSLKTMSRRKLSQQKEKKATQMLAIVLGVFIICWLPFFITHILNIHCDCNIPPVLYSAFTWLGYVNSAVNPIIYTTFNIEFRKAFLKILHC
From the text: Non-specific binding was estimated in the presence of […] Haloperidol. Receptor proteins were filtered and washed, the filters were then counted to determine [^3H]Spiperone specifically bound. […] Biochemical assay results are presented as the percent inhibition of specific binding in Table 9.

[3] = biological target: T1, human recombinant serotonin (5-Hydroxytryptamine) 5-HT2A receptor (Homo sapiens, UniProt P28223); test: Serotonin 5-HT2A radioligand binding ([3H]Ketanserin); conditions: for inhibition at 0.1 µM: read-out: Inhibition of ligand binding, Serotonin 5-HT2A (percent inhibition of specific binding), compound at 0.1 μM; for inhibition at 1 µM: read-out: Inhibition of ligand binding, Serotonin 5-HT2A (percent inhibition of specific binding), compound at 1 μM
T1 construct: expressed in transfected cells; host or cells: Chinese hamster ovary (CHO-K1) cells
T1 sequence (P28223 whole entry): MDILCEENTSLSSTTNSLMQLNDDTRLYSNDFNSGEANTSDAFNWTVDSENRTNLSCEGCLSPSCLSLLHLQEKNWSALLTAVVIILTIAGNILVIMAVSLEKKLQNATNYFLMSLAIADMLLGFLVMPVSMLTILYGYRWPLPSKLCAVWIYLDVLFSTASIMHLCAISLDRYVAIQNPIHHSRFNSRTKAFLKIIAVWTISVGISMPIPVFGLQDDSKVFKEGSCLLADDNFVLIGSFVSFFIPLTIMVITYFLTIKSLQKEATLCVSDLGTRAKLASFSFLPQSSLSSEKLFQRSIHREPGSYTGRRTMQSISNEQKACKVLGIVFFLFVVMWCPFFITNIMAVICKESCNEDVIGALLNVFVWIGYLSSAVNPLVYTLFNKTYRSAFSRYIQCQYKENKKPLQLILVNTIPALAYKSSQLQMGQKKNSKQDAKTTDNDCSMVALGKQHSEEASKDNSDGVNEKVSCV
Description: (§1) Compounds of the invention were incubated with 0.5 nM [^3H]Ketanserin for 60 min. at 25° C. Non-specific binding was estimated in the presence of 1 μM Mianserin. Receptor proteins were filtered and washed, the filters were then counted to determine [^3H]Ketanserin specifically bound.

[4] = biological target: T2, human recombinant serotonin (5-Hydroxytryptamine) 5-HT2C receptor (Homo sapiens, UniProt P28335); test: Serotonin 5-HT2C radioligand binding ([3H]Mesulergine); conditions: read-out: Inhibition of ligand binding, Serotonin 5-HT2C (percent inhibition of specific binding); for inhibition at 0.1 µM: compound at 0.1 μM
T2 construct: expressed in transfected cells; host or cells: Chinese hamster ovary (CHO-K1) cells
T2 sequence (P28335 33-458): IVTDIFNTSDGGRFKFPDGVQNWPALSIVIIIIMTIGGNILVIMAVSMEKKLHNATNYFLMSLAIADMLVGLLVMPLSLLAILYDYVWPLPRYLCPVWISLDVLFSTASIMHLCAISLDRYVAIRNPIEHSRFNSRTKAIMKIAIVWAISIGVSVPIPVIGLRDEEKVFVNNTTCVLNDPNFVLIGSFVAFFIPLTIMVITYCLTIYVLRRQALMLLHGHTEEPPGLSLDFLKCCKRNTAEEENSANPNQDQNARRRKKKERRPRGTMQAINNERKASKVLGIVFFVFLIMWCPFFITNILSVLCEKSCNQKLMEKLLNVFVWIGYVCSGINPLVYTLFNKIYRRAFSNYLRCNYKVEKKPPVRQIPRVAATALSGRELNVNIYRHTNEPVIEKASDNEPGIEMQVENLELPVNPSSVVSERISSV
Description: as §1, with “1” for “0.5”, “[^3H]Mesulergine” for “[^3H]Ketanserin”, “bound. Compounds were screened at 1 μM or lower, using 1% DMSO as vehicle. Biochemical assay results are presented as the percent inhibition of specific binding in Table 10.” for “bound.”

[5] = biological target: T3, human recombinant serotonin (5-Hydroxytryptamine) 5-HT6 receptor (Homo sapiens, UniProt P50406); test: Serotonin 5-HT6 radioligand binding ([3H]LSD); conditions: read-out: Inhibition of ligand binding, Serotonin 5-HT6 (percent inhibition of specific binding); for inhibition at 0.1 µM: compound at 0.1 μM
T3 construct: expressed in transfected cells; host or cells: human HeLa cells
T3 sequence (P50406 whole entry): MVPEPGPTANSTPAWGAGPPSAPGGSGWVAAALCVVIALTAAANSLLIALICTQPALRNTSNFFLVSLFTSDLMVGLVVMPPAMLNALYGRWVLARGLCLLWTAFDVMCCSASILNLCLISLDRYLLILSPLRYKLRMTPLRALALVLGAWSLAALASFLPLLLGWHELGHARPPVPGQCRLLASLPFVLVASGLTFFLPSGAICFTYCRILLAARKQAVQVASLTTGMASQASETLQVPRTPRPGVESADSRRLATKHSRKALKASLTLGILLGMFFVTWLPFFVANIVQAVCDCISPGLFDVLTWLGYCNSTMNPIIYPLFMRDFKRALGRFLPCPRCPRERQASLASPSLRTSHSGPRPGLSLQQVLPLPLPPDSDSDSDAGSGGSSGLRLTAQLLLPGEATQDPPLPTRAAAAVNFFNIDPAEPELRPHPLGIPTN
Description: Compounds of the invention were incubated with 1.5 nM [3H]Lysergic acid diethylamide (LSD) for 120 min. at 37° C. […] Receptor proteins were filtered and washed, the filters were then counted to determine [3H]LSD specifically bound. Compounds were screened at 1 μM or lower, using 1% DMSO as vehicle. Biochemical assay results are presented as the percent inhibition of specific binding in Table 10.

[6] = biological target: human recombinant serotonin (5-Hydroxytryptamine) 5-HT7 receptor (Homo sapiens, UniProt P34969); test: Serotonin 5-HT7 radioligand binding ([3H]LSD); conditions: compound at 0.1 μM; read-out: Inhibition of ligand binding, Serotonin 5-HT7 (percent inhibition of specific binding)
Chain of human recombinant serotonin (5-Hydroxytryptamine) 5-HT7 receptor (P34969 whole entry): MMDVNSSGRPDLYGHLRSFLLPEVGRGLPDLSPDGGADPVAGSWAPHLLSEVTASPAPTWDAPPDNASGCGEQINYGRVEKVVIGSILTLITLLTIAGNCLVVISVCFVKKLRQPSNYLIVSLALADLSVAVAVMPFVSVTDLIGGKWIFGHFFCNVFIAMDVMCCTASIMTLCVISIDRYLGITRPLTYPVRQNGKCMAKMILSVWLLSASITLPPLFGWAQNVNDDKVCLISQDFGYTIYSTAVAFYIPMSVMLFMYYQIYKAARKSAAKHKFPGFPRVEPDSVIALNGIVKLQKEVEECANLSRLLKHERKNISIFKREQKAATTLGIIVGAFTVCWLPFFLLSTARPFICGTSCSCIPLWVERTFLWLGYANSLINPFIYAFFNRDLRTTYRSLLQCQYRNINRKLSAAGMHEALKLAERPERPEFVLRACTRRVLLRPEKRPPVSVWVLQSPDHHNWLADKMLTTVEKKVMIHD
From the text: Receptor proteins were filtered and washed, the filters were then counted to determine [^3H]LSD specifically bound.

[7] = percent inhibition of specific binding, read-out: Inhibition of ligand binding, Dopamine D2L
[8] = […] [3H]Spiperone, read-out: Inhibition of ligand binding, Dopamine D2L (percent inhibition of specific binding)

With `CC(=Cn1c2c(c3cc(Cl)ccc31)CN(C)CC2)c1ccc(F)cc1F` (stereo in doubt) [Compound 107, 8-chloro-5-((Z)-2-(2,4-difluorophenyl)prop-1-enyl)-2,3,4,5-tetrahydro-2-methyl-1H-pyrido[4,3-b]indole] the “Histamine Binding (1 μM) H1, percent inhibition of specific binding” value ([1]; 1 μM) was 88%, the “Inhibition of ligand binding, Dopamine D2L” value ([2]; percent inhibition of specific binding, 1 µM) was 72% and the inhibition at 0.1 µM [3] was 96%. For the same compound, the inhibition at 0.1 µM [4] was 95%, the inhibition at 0.1 µM [5] was 97% and the inhibition at 0.1 µM [6] was 95%.
In the case of `COc1ccc([C@](C)(O)Cn2c3c(c4cc(C)ccc42)CN(C)CC3)cc1` [Compound 191, 1-(2,8-dimethyl-3,4-dihydro-1H-pyrido[4,3-b]indol-5(2H)-yl)-2-(4-methoxyphenyl)propan-2-ol], the inhibition at 1 µM [1] is reported as 23%, the inhibition at 1 µM [2, 7] is reported as 15% and the inhibition at 0.1 µM [3] is reported as 98%. The inhibition at 0.1 µM [4] was 94%, the inhibition at 0.1 µM [5] was 45% and the inhibition at 0.1 µM [6] was 69%.
`COc1ccc([C@@](C)(O)Cn2c3c(c4cc(C)ccc42)CN(C)CC3)cc1` [Compound 192, 1-(2,8-dimethyl-3,4-dihydro-1H-pyrido[4,3-b]indol-5(2H)-yl)-2-(4-methoxyphenyl)propan-2-ol] was tested, and the inhibition at 1 µM [1] was 61%, the inhibition at 1 µM [2, 7] was 34% and the inhibition at 0.1 µM [3] was 91%. It also gave an inhibition at 0.1 µM [4] of 81%, an inhibition at 0.1 µM [5] of 38% and an inhibition at 0.1 µM [6] of 78%.
Work on `CC(C)C(O)(Cn1c2c(c3cc(Cl)ccc31)CN(C)CC2)c1ccncc1` (stereo not shown) [Compound 193, 1-(8-chloro-2-methyl-3,4-dihydro-1H-pyrido[4,3-b]indol-5(2H)-yl)-3-methyl-2-(pyridin-4-yl)butan-2-ol] yielded an inhibition at 1 µM [1] of -7%, an inhibition at 1 µM [2, 7] of 14% and an inhibition at 0.1 µM [3] of 69%. It also gave an inhibition at 0.1 µM [4] of 44%, an inhibition at 0.1 µM [5] of 3% and an inhibition at 0.1 µM [6] of 40%.
Compound `Cc1ccc2c(c1)c1c(n2CC(O)(c2ccncc2)C(C)C)CCN(C)C1` (stereo not shown) [Compound 194, 1-(2,8-dimethyl-3,4-dihydro-1H-pyrido[4,3-b]indol-5(2H)-yl)-3-methyl-2-(pyridin-4-yl)butan-2-ol] has an inhibition at 1 µM [1] of 9%, an inhibition at 1 µM [2, 7] of 12% and an inhibition at 0.1 µM [3] of 71%. The inhibition at 0.1 µM [4] was 47%, the inhibition at 0.1 µM [5] was 7% and the inhibition at 0.1 µM [6] was 16%.
With `CCC(O)(Cn1c2c(c3cc(Cl)ccc31)CN(C)CC2)c1ccncc1` (stereo not shown) [Compound 195, 1-(8-chloro-2-methyl-3,4-dihydro-1H-pyrido[4,3-b]indol-5(2H)-yl)-2-(pyridin-4-yl)butan-2-ol] the inhibition at 1 µM [1] was 20%, the inhibition at 1 µM [2, 7] was 17% and the inhibition at 0.1 µM [3] was 62%. The inhibition at 0.1 µM [4] was 43%, the inhibition at 0.1 µM [5] was 32% and the inhibition at 0.1 µM [6] was 18%.
`CCC(O)(Cn1c2c(c3cc(C)ccc31)CN(C)CC2)c1ccncc1` (stereo not shown) [Compound 196, 1-(2,8-dimethyl-3,4-dihydro-1H-pyrido[4,3-b]indol-5(2H)-yl)-2-(pyridin-4-yl)butan-2-ol] showed an inhibition at 1 µM [1] of 19%, an inhibition at 1 µM [2, 7] of 9% and an inhibition at 0.1 µM [3] of 36%. For the same compound, the inhibition at 0.1 µM [4] was 8%, the inhibition at 0.1 µM [5] was 10% and the inhibition at 0.1 µM [6] was 12%.
Compound `Cc1ccc2c(c1)c1c(n2CC(C)(O)c2ccncn2)CCN(C)C1` (stereo not shown) [Compound 197, 1-(2,8-dimethyl-3,4-dihydro-1H-pyrido[4,3-b]indol-5(2H)-yl)-2-(pyrimidin-4-yl)propan-2-ol] has an inhibition at 1 µM [1] of 61%, an inhibition at 1 µM [2, 7] of 14% and an inhibition at 0.1 µM [3] of 17%. It also gave an inhibition at 0.1 µM [4] of 16%, an inhibition at 0.1 µM [5] of 4% and an inhibition at 0.1 µM [6] of 10%.
`CN1CCc2c(c3cc(Cl)ccc3n2CC(C)(O)c2ccncn2)C1` (stereo not shown) [Compound 198, 1-(8-chloro-2-methyl-3,4-dihydro-1H-pyrido[4,3-b]indol-5(2H)-yl)-2-(pyrimidin-4-yl)propan-2-ol] gave an inhibition at 1 µM [1] of 64%, an inhibition at 1 µM [2, 7] of 5% and an inhibition at 0.1 µM [3] of 23%. The inhibition at 0.1 µM [4] was -1%, the inhibition at 0.1 µM [5] was 11% and the inhibition at 0.1 µM [6] was 4%.
`CN1CCc2c(c3cc(Cl)ccc3n2CC(C)(O)c2cnccn2)C1` (stereo not shown) [Compound 199, 1-(8-chloro-2-methyl-3,4-dihydro-1H-pyrido[4,3-b]indol-5(2H)-yl)-2-(pyrazin-2-yl)propan-2-ol] gave an inhibition at 1 µM [1] of 61%, an inhibition at 1 µM [2, 7] of 16% and an inhibition at 0.1 µM [3] of 40%. The inhibition at 0.1 µM [4] was 33%, the inhibition at 0.1 µM [5] was 25% and the inhibition at 0.1 µM [6] was 30%.
With `Cc1ccc2c(c1)c1c(n2CC(C)(O)c2cnccn2)CCN(C)C1` (stereo not shown) [Compound 200, 1-(2,8-dimethyl-3,4-dihydro-1H-pyrido[4,3-b]indol-5(2H)-yl)-2-(pyrazin-2-yl)propan-2-ol] the inhibition at 1 µM [1] was 45%, the inhibition at 1 µM [2, 7] was 6% and the inhibition at 0.1 µM [3] was 30%. The inhibition at 0.1 µM [4] was 17%, the inhibition at 0.1 µM [5] was 20% and the inhibition at 0.1 µM [6] was 31%.
`C/C(=C\n1c2c(c3cc(Cl)c(Cl)cc31)CN(C)CC2)c1ccc(F)cc1` [Compound 248, (E)-7,8-dichloro-5-(2-(4-fluorophenyl)prop-1-enyl)-2-methyl-2,3,4,5-tetrahydro-1H-pyrido[4,3-b]indole] gave an inhibition at 1 µM [1] of 90%, an inhibition at 1 µM [2, 7] of 95% and an inhibition at 0.1 µM [3] of 108%. For the same compound, the inhibition at 0.1 µM [4] was 92%, the inhibition at 0.1 µM [5] was 101% and the inhibition at 0.1 µM [6] was 57%.
In the case of `C/C(=C\n1c2c(c3cc(C(F)(F)F)ccc31)CN(C)CC2)c1ccncc1` [Compound 249, (E)-2-methyl-5-(2-(pyridin-4-yl)prop-1-enyl)-8-(trifluoromethyl)-2,3,4,5-tetrahydro-1H-pyrido[4,3-b]indole], the inhibition at 1 µM [1] is reported as 48%, the inhibition at 1 µM [2, 7] is reported as 93% and the inhibition at 0.1 µM [3] is reported as 90%. It also gave an inhibition at 0.1 µM [4] of 60%, an inhibition at 0.1 µM [5] of 98% and an inhibition at 0.1 µM [6] of 70%.
In the case of `C/C(=C\n1c2c(c3ccc(C(F)(F)F)cc31)CN(C)CC2)c1ccc(C)nc1` [Compound 250, (E)-2-methyl-5-(2-(6-methylpyridin-3-yl)prop-1-enyl)-7-(trifluoromethyl)-2,3,4,5-tetrahydro-1H-pyrido[4,3-b]indole], the inhibition at 1 µM [1] is reported as 12%, the inhibition at 1 µM [2, 7] is reported as 18% and the inhibition at 0.1 µM [3] is reported as 36%. For the same compound, the inhibition at 0.1 µM [4] was 31%, the inhibition at 0.1 µM [5] was 13% and the inhibition at 0.1 µM [6] was 33%.
`CN1CCc2c(c3cccc(Cl)c3n2C[C@@](C)(O)c2ccncc2)C1` [Compound No. 469, (S)-1-(6-chloro-2-methyl-3,4-dihydro-1H-pyrido[4,3-b]indol-5(2H)-yl)-2-(pyridin-4-yl)propan-2-ol] gave an inhibition at 1 µM [1] of 14%, an inhibition at 1 µM [2, 8] of 12% and an inhibition at 1 µM [3] of 87%.
`CN1CCc2c(c3cccc(Cl)c3n2C[C@](C)(O)c2ccncc2)C1` [Compound No. 470, (R)-1-(6-chloro-2-methyl-3,4-dihydro-1H-pyrido[4,3-b]indol-5(2H)-yl)-2-(pyridin-4-yl)propan-2-ol] gave an inhibition at 1 µM [1] of 17%, an inhibition at 1 µM [2, 8] of 1% and an inhibition at 1 µM [3] of 89%.
`C/C(=C\n1c2c(c3cc(Cl)ccc31)CN(CCC(C)(C)O)CC2)c1ccncc1` [compound 404, (E)-4-(8-chloro-5-(2-(pyridin-4-yl)prop-1-enyl)-3,4-dihydro-1H-pyrido[4,3-b]indol-2(5H)-yl)-2-methylbutan-2-ol] gave an inhibition at 1 µM [1] of 37%, an inhibition at 1 µM [2, 8] of 92% and an inhibition at 1 µM ([4]; compound at 1 μM) of 90%. It also gave an inhibition at 1 µM ([5]; compound at 1 μM) of 95%.
